# How the values were obtained:
# [1] = Cytotoxicity against C57BL/6 mouse BMDM cells assessed as reduction in cell viability measured after 24 hrs by resazurin dye based assay; type: toxicity; conditions: C57BL/6, mouse, BMDM cells (bone marrow-derived macrophages)
# [2] = tested on: Mycobacterium tuberculosis; test: Antimycobacterial activity against Mycobacterium tuberculosis mc2 6230 assessed as inhibition of mycobacterial growth incubated for 10 to 14 days by resazurin microtiter assay; type: functional; conditions: time 10-14 day
# [3] = tested on: Mycobacteroides abscessus; test: Antimycobacterial activity against Mycobacterium abscessus CIP104536T with rough morphotype assessed as inhibition of mycobacterial growth incubated for 3 to 5 days by resazurin microtiter assay; type: functional; conditions: time 3-5 day
# [4] = tested on: Mycobacteroides abscessus; test: Antimycobacterial activity against Mycobacterium abscessus CIP104536T with smooth morphotype assessed as inhibition of mycobacterial growth incubated for 3 to 5 days by resazurin microtiter assay; type: functional; conditions: time 3-5 day
# Mycobacterium marinum = test: Antimycobacterial activity against Mycobacterium marinum ATCC BAA-535/M assessed as inhibition of mycobacterial growth incubated for 10 to 14 days by resazurin microtiter assay; type: functional; conditions: time 10-14 day
SMILES,CC50 at 24 h [1] [µg/mL],MIC50 [2] [µg/mL],MIC90 [2] [µg/mL],MIC50 [3] [µg/mL],MIC90 [3] [µg/mL],MIC50 [4] [µg/mL],MIC50 (Mycobacterium marinum) [µg/mL],MIC90 (Mycobacterium marinum) [µg/mL],MIC90 [4] [µg/mL]
NNC(=O)/C=C/c1ccc(C(F)(F)F)cc1,> 125,20.4,44.2,46,46.8,> 100,> 100,,
CCCCCCCCc1ccc(/C=C/C=C/C(=O)NO)cc1,< 10,> 100,,> 100,,> 100,49.4,> 100,
O=C(/C=C/C=C/c1ccccc1)NO,< 10,> 100,,> 100,,> 100,14.9,91.4,
O=C(/C=C/C=C/c1cccc(C(F)(F)F)c1)NO,< 10,50.5,> 100,4.4,7,52.3,10.1,> 100,> 100
O=C(/C=C/c1ccc(C(F)(F)F)cc1)NO,< 10,14.4,> 100,6.3,21.9,37.2,14.1,> 100,39.6
O=C(/C=C/C=C/c1ccc(C(F)(F)F)cc1)NO,< 10,28.8,80.6,5.5,10.9,> 100,> 100,,
O=C(/C=C/c1ccc(F)cc1)NO,< 10,47.3,55.4,> 100,,> 100,3.5,23.9,
NNC(=O)/C=C/C=C/c1ccc(C(F)(F)F)cc1,> 125,23.7,> 100,5.7,19.4,> 100,> 100,,
NNC(=O)/C=C/c1cccc(F)c1,> 125,65.8,> 100,> 100,,> 100,41.1,> 100,
O=C(CCc1ccccc1)NO,95,> 100,,> 100,,> 100,11.9,89.3,
CCCCCCCOc1ccc(/C=C/C=C/C(=O)NN)cc1,64,27,29.1,9.7,26.1,26.6,> 100,,> 100
O=C(/C=C/C=C/c1cccc(F)c1)NO,< 10,7.6,> 100,6,19,36.8,7.5,39.3,> 100
CCCCOc1ccc(/C=C/C=C/C(=O)NO)cc1,> 125,38.6,> 100,> 100,,27.2,> 100,,59.3
O=C(/C=C/c1ccccc1)NO,< 10,28.8,40.7,> 100,,> 100,6.7,32.4,
NNC(=O)/C=C/c1cccc(C(F)(F)F)c1,> 125,40.5,65.7,51.4,55.7,> 100,> 100,,
CCCCCC(=O)ONC(=O)/C=C/C=C/c1ccc(OC)cc1,< 10,13.8,22.9,> 100,,> 100,26.8,54.5,
O=C(/C=C/c1ccc(-c2ccccc2)cc1)NO,16,20.6,> 100,> 100,,> 100,20.8,68.6,

# Reference: ChEMBL document CHEMBL5143637, “Design, synthesis and antibacterial activity against pathogenic mycobacteria of conjugated hydroxamic acids, hydrazides and O-alkyl/O-acyl protected hydroxamic derivatives” (Bioorg Med Chem Lett, 2022)
